Source: patent US20040102622A1, “Modulation of hepatocyte growth factor receptor expression” (Isis Pharmaceuticals Inc., priority 2002, published 2004)

System: human hepatocyte growth factor receptor mRNA

| Substance | inhibition of human hepatocyte growth factor receptor expression |
| --- | --- |
| ISIS 155121: 2′-MOE gapmer, phosphorothioate backbone, sequence tgaaaggactttggctccca (antisense TGAAAGGACTTTGGCTCCCA; all phosphorothioate, sugars by position and methylation of C not given here; 2'-MOE gapmer) | at least 35% |
| ISIS 155127: 2′-MOE gapmer, phosphorothioate backbone, sequence gatctggttgaactattact (antisense GATCTGGTTGAACTATTACT; all phosphorothioate, sugars by position and methylation of C not given here; 2'-MOE gapmer) | at least 35% |
| ISIS 209539: 2′-MOE gapmer, phosphorothioate backbone, sequence gcttccccattgctgttagg (antisense GCTTCCCCATTGCTGTTAGG; all phosphorothioate, sugars by position and methylation of C not given here; 2'-MOE gapmer) | at least 35% |
| ISIS 155112: 2′-MOE gapmer, phosphorothioate backbone, sequence taggagtcttctcccttgca (antisense TAGGAGTCTTCTCCCTTGCA; all phosphorothioate, sugars by position and methylation of C not given here; 2'-MOE gapmer) | at least 35% |
| ISIS 209527: 2′-MOE gapmer, phosphorothioate backbone, sequence cgcttcacagcctgatgaat (antisense CGCTTCACAGCCTGATGAAT; all phosphorothioate, sugars by position and methylation of C not given here; 2'-MOE gapmer) | at least 35% |
| ISIS 155097: 2′-MOE gapmer, phosphorothioate backbone, sequence cctcggtcagaaattgggaa (antisense CCTCGGTCAGAAATTGGGAA; all phosphorothioate, sugars by position and methylation of C not given here; 2'-MOE gapmer) | at least 35% |
| ISIS 209524: 2′-MOE gapmer, phosphorothioate backbone, sequence ctcatgtagaatgacattct (antisense CTCATGTAGAATGACATTCT; all phosphorothioate, sugars by position and methylation of C not given here; 2'-MOE gapmer) | at least 35% |
| ISIS 155122: 2′-MOE gapmer, phosphorothioate backbone, sequence aagcctatccaaatgaggag (antisense AAGCCTATCCAAATGAGGAG; all phosphorothioate, sugars by position and methylation of C not given here; 2'-MOE gapmer) | at least 35% |
| ISIS 155124: 2′-MOE gapmer, phosphorothioate backbone, sequence tatgatgtctcccagaagga (antisense TATGATGTCTCCCAGAAGGA; all phosphorothioate, sugars by position and methylation of C not given here; 2'-MOE gapmer) | at least 35% |
| ISIS 155113: 2′-MOE gapmer, phosphorothioate backbone, sequence ctaatgagttgatcatcata (antisense CTAATGAGTTGATCATCATA; all phosphorothioate, sugars by position and methylation of C not given here; 2'-MOE gapmer) | at least 35% |
| ISIS 155130: 2′-MOE gapmer, phosphorothioate backbone, sequence tctctgaactcaggtaaaac (antisense TCTCTGAACTCAGGTAAAAC; all phosphorothioate, sugars by position and methylation of C not given here; 2'-MOE gapmer) | at least 35% |
| ISIS 209550: 2′-MOE gapmer, phosphorothioate backbone, sequence tgcgcgctgtagtcccagct (antisense TGCGCGCTGTAGTCCCAGCT; all phosphorothioate, sugars by position and methylation of C not given here; 2'-MOE gapmer) | at least 35% |
| ISIS 209546: 2′-MOE gapmer, phosphorothioate backbone, sequence aattcaagttttggactcca (antisense AATTCAAGTTTTGGACTCCA; all phosphorothioate, sugars by position and methylation of C not given here; 2'-MOE gapmer) | at least 35% |
| ISIS 155123: 2′-MOE gapmer, phosphorothioate backbone, sequence gcaaagctgtggtaaactct (antisense GCAAAGCTGTGGTAAACTCT; all phosphorothioate, sugars by position and methylation of C not given here; 2'-MOE gapmer) | at least 35% |
| ISIS 155102: 2′-MOE gapmer, phosphorothioate backbone, sequence gagaggcattgactgcagga (antisense GAGAGGCATTGACTGCAGGA; all phosphorothioate, sugars by position and methylation of C not given here; 2'-MOE gapmer) | at least 35% |
| ISIS 209525: 2′-MOE gapmer, phosphorothioate backbone, sequence ctggtccgtcaaaaacataa (antisense CTGGTCCGTCAAAAACATAA; all phosphorothioate, sugars by position and methylation of C not given here; 2'-MOE gapmer) | at least 35% |
| ISIS 209547: 2′-MOE gapmer, phosphorothioate backbone, sequence tcctgcttcaatttcccata (antisense TCCTGCTTCAATTTCCCATA; all phosphorothioate, sugars by position and methylation of C not given here; 2'-MOE gapmer) | at least 35% |
| ISIS 155133: 2′-MOE gapmer, phosphorothioate backbone, sequence aaaccatttctgtagttggg (antisense AAACCATTTCTGTAGTTGGG; all phosphorothioate, sugars by position and methylation of C not given here; 2'-MOE gapmer) | at least 35% |
| ISIS 155111: 2′-MOE gapmer, phosphorothioate backbone, sequence gttcggcagaatctggcttg (antisense GTTCGGCAGAATCTGGCTTG; all phosphorothioate, sugars by position and methylation of C not given here; 2'-MOE gapmer) | at least 35% |
| ISIS 209544: 2′-MOE gapmer, phosphorothioate backbone, sequence taatagtgcaattttggcaa (antisense TAATAGTGCAATTTTGGCAA; all phosphorothioate, sugars by position and methylation of C not given here; 2'-MOE gapmer) | at least 35% |
| ISIS 209548: 2′-MOE gapmer, phosphorothioate backbone, sequence tcaagaagccctcaatattt (antisense TCAAGAAGCCCTCAATATTT; all phosphorothioate, sugars by position and methylation of C not given here; 2'-MOE gapmer) | at least 35% |
| ISIS 155120: 2′-MOE gapmer, phosphorothioate backbone, sequence gtgtcctattaaagcagtgc (antisense GTGTCCTATTAAAGCAGTGC; all phosphorothioate, sugars by position and methylation of C not given here; 2'-MOE gapmer) | at least 35% |
| ISIS 209536: 2′-MOE gapmer, phosphorothioate backbone, sequence cctcccatactagagaagta (antisense CCTCCCATACTAGAGAAGTA; all phosphorothioate, sugars by position and methylation of C not given here; 2'-MOE gapmer) | at least 35% |
| ISIS 155116: 2′-MOE gapmer, phosphorothioate backbone, sequence aaatctttcatgatgattcc (antisense AAATCTTTCATGATGATTCC; all phosphorothioate, sugars by position and methylation of C not given here; 2'-MOE gapmer) | at least 35% |
| ISIS 155129: 2′-MOE gapmer, phosphorothioate backbone, sequence gattgggtccgtaaaaatgc (antisense GATTGGGTCCGTAAAAATGC; all phosphorothioate, sugars by position and methylation of C not given here; 2'-MOE gapmer) | at least 35% |
| ISIS 209529: 2′-MOE gapmer, phosphorothioate backbone, sequence cccagccacatatggtcagc (antisense CCCAGCCACATATGGTCAGC; all phosphorothioate, sugars by position and methylation of C not given here; 2'-MOE gapmer) | at least 35% |
